This is an account of results in patent publication US8080522B2, “Polyethlene glycol modifications of thymosin alpha-1” (Institute of Pharmacology and Toxicology Academy of …, priority 2005, dated 2011).

By AUC is commonly meant concentration integrated over time. A higher AUC goes with more exposure. As a reminder, the Cmax is the peak of the concentration-time curve. As usually defined, the Tmax is the time from dosing to the highest level.

Data set [1] is described as follows: Half-life in liver homogenate (HPLC). The data set is classed as in vitro ADME. The conditions noted are these: 37° C., sample 0.4 mg/mL or 0.8 mg/mL; for half-life: read-out: t1/2 in liver homogenate (converted). Here is the method:
Experimental method: Prepare 0.4 mg/mL or 0.8 mg/mL sample aqueous solution in centrifuge tube, adding 50 μL liver homogenate. Then incubate for different time in 37° C. water bath. Terminate the reaction and precipitate liver homogenate protein by heating the mixture in boiling water for 5 minutes. Centrifuge it (10000 rpm) for 10 minutes. Analyze the supernatant by HPLC. The data was statistically analyzed by Origin Prof. 5.0.
HPLC: Column temperature: 25° C.; Flow rate 1.0 mL/min; Detection wavelength: 200 nm; Mobile phase A: 0.1% TFA/H2O; Mobile phase B: 0.1% TFA/70% CH3CN.

The subject of data set [2] is T lymphocyte (spleen cell). Briefly: T lymphocyte proliferation stimulated by Con A (3H-TdR incorporation). The data set is classed as cell-based, mouse. The conditions noted are these: for 3H-TdR incorporation (cpm, x ± SD): Con A 0.5 μg/mL, 72 hours, n = 4; for Enhancement percentage: versus Con A alone. As to the method: Sacrifice mouse by draining artery blood, remove spleen in sterile condition, and make it to spleen cell suspension. After red blood cell lysis, wash for 3 times, and stain with Trypan Blue to count the living cells. The amount of living cells should be more than 95%. Dilute the cell concentration to 5×10^6 cell/mL by adding RPMI-1640 culture with 10% bovine serum. Add spleen cell suspension to a sterilized 96-well plate for 100 μL per well. The total amount is 200 μL per well (including 50 μL Con A and 50 μL medicament). Each sample concentration is repeated fro 3-4 wells. Incubate the plate in a 5% CO2 chamber for 72 hours, add 10 μci/mL ^3H-TdR 20 μL per well 16 hours before termination of the incubation, giving rise to a final concentration of 1.0 μci (37.0 KBq)/mL. Collect cells on filter membrane by using Herveste 96 cell harvester, dried in 80° C. oven for 20 minutes or dried in air. Put the dried filter membrane into 1450-423 microBeta sample bag, add scintillation liquid, and measure radioactivity (cpm) in Perkin Elmer MicroBeta Trilux 1450 Scintillation Counter.

Data set [3] is described as follows: Plasma concentration / pharmacokinetics in mouse (competitive ELISA). The following applies: 300 μg per mouse, injected peritoneally, parameters in 24 h. The data set is classed as in vivo. As to the method: Coating antigen: Dilute Tα1 detection antigen stock solution to a final concentration of 2 μg/mL with coating solution, and add it into the wells of ELISA plate for 0.1 mL per well, and incubate at 4° C. for 5 days. Then wash the ELISA plate 3 times with washing buffer, each 0.2 mL/well and 3 min/time. Add 0.2 mL blocking buffer to each well, incubate for 1.5 hours at 37° C., wash plate 2 times by washing buffer, and spin dried.
Sample preparation: Weight sample accurately, dissolve it in saline to a concentration of 1.5 mg/mL. Administrate 0.2 Ml by injection to each mouse peritoneally. Collect blood sample in 3 min, 20 min, 40 min, 1 h, 2 h, 3 h, 6 h, 8 h, 12 h, and 24 h. Collect serum by centrifuge the blood samples for 5 minutes at 10000 rpm, stored at −20° C. in a freezer. o prepare test sample, […] was added by 0.1 mL 1:1500 rabbit anti-Tα1 serum (final concentration is 1:6000), and 0.2 mL CD-1® mouse serum, and […]. Prepare blank control at the same time. Total volume is 0.4 mL. Incubate for 2 hours at 37° C. To prepare standard sample, Tα1 0.1 mL with different concentrations from 0.0004 to 400 μg/mL was added by 0.1 mL 1:1500 rabbit anti-Tα1 serum (final concentration is 1:6000), and 0.2 mL CD-1® mouse serum. Prepare blank control at the same time. Total volume is 0.4 mL. Incubate for 2 hours at 37° C.
Sample Testing Add the prepared test sample and standard sample to ELISA plate, 0.1 mL/well, reacting for 1 hour in 37° C. chamber. Wash the plates 3 times, spin dryed. Add substrate 0.1 mL/well for 10 minutes. Add 2 mol/L H2SO4 0.05 mL to each well to terminate the reaction. Measure the OD value at 450 nm. Plot the standard curve with the concentration of Tα1 standard sample as abscissa and OD value as vertical coordinate. Calculate the content of test sample according to this standard curve.
(In general: ELISA stands for enzyme-linked immunosorbent assay.)

Data set [4] relates to spleen cell. Briefly: Interferon-γ production of spleen cells stimulated by Con A (double antibody sandwich ELISA). It counts as cell-based. The conditions noted are these: for Concentration of IFN-γ: Con A 0.5 μg/mL, 24 hours, n = 3; for Enhancement percentage: versus Con A alone. Here is the method:
Prepare spleen cell suspension in sterile condition. Adjust cell concentration to 5×10^6 cell/mL by adding RPMI-1640 culture with 20% bovine serum. Add 0.5 mL cell suspension, 0.25 mL Con A (final concentration is 0.5 μg/mL) and 0.25 mL samples with different concentrations in 24-well plate; and add RPMI-1640 culture in control wells. Incubate the plates in a 5% CO2 chamber at 37° C. for 24 hours. Centrifuge and collect supernatant, test the content of IFN-γ in supernatant by double antibody sandwich ELISA. The protocol is according to the instruction on ELISA kit.

[5] abbreviates: serum, ip, 300 ug/animal, n = 3, read-out: Cmax.
Setting [6] is: serum, ip, 300 ug/animal, n = 3, read-out: Tmax.

Where two headings read alike, the source gives them in different places. Where no end group is shown, it is not given here. Bounds are passed on as bounds.

Consider “Ac-[Cys^8(mPEG5000-MAL)]Tα1 (Ac-SDAAVDTC(mPEG5000‑maleimide)SEITTKDLKEKKEVVEEAEN; UniProt P06454 2-29, looked up, variant S8C) [BMJB008]”, for which the “t1/2 in liver homogenate” value in data set [1] was 65.2 h.
In the case of “Ac-SDAAVDTSSEITTKDLCEKKEVVEEAEN-OH [BMJBT005]”, the “3H-TdR incorporation (cpm, x ± SD)” value in data set [2] (Table 2-1, sample 10 μg/mL) is 22237 ± 5551 cpm; in data set [2] (Table 2-1, sample 50 μg/mL), 22413 ± 1436 cpm; in data set [2] (Table 2-1, sample 100 μg/mL) it was 17551 ± 2491 cpm. Besides, the Enhancement percentage entry in data set [2] (Table 2-1, sample 10 μg/mL) was “+64.9%”; in data set [2] (Table 2-1, sample 50 μg/mL) it was “+66.2%”; in data set [2] (Table 2-1, sample 100 μg/mL), “+30.1%”; in data set [4] (Table 1-1, sample 1 μg/mL) it was “+142.4%”; in data set [4] (Table 1-1, sample 10 μg/mL), “+127.0%”; in data set [4] (Table 1-1, sample 100 μg/mL), “+20.6%”. In data set [3] (n = 3), this substance gave an AUC of 6110 ng·h/mL. Moreover, the Cmax in data set [3] (setting [5]) amounted to 3650 ng/mL. In data set [3] (setting [6]), the Tmax came out at 20 min. Also, the “Concentration of IFN-γ” value in data set [4] (Table 1-1, sample 1 μg/mL) is reported as 1822.2 ± 24.3 pg/mL; in data set [4] (Table 1-1, sample 10 μg/mL) it was 1706.5 ± 139.3 pg/mL; in data set [4] (Table 1-1, sample 100 μg/mL) it was 906.9 ± 10.7 pg/mL. Further, the half-life in data set [1] is 168 min.
As for “Ac-SDAAVDTSSEITTKDLKEKKCVVEEAEN-OH [BMJBT006]”, the “3H-TdR incorporation (cpm, x ± SD)” value in data set [2] (Table 2-1, sample 10 μg/mL) was found to be 21152 ± 2936 cpm; in data set [2] (Table 2-1, sample 50 μg/mL), 19880 ± 1777 cpm; in data set [2] (Table 2-1, sample 100 μg/mL), 14319 ± 2333 cpm. Further, the Enhancement percentage result in data set [2] (Table 2-1, sample 10 μg/mL) was “+56.8%”; in data set [2] (Table 2-1, sample 50 μg/mL) it was “+47.4%”; in data set [2] (Table 2-1, sample 100 μg/mL), “+6.2%”. This substance also returned an AUC in data set [3] (n = 3) of 12800 ng·h/mL. In data set [3] (setting [5]), the Cmax stood at 11500 ng/mL. Further, the Tmax in data set [3] (setting [6]) came to 20 min. Also, the half-life in data set [1] was 156 min.
With “Ac-[Cys^5(mPEG5000-MAL)]Tα1 (Ac-SDAAC(mPEG5000‑maleimide)DTSSEITTKDLKEKKEVVEEAEN; UniProt P06454 2-29, looked up, variant V5C) [BMJB005]”, the “t1/2 in liver homogenate” value in data set [1] is 250.0 h.
In data set [3] (n = 3), “Ac-SDAAVDTSSEITTKDLKEKKEVVCEAEN-OH [BMJBT007]” had an AUC of 17900 ng·h/mL. Besides, the highest concentration (Cmax) in data set [3] (setting [5]) was found to be 5990 ng/mL. The Tmax in data set [3] (setting [6]) worked out at 20 min. The half-life in data set [1] was 30 min.
In data set [3] (n = 3), “Ac-SDAAVDTSSEITTKDCKEKKEVVEEAEN-OH [BMJBT004]” gave an AUC of 8760 ng·h/mL. In addition, the Cmax in data set [3] (setting [5]) came to 4940 ng/mL. The Tmax in data set [3] (setting [6]) stood at 20 min. The “Concentration of IFN-γ” value in data set [4] (Table 1-2, sample 1 μg/mL) was 3671.1 ± 86.0 pg/mL; in data set [4] (Table 1-2, sample 10 μg/mL) it was 3216.1 ± 228.6 pg/mL; in data set [4] (Table 1-2, sample 100 μg/mL) it was 3565.9 ± 77.8 pg/mL. Moreover, the “Enhancement percentage” value in data set [4] (Table 1-2, sample 1 μg/mL) is listed as “+12.7%”; in data set [4] (Table 1-2, sample 10 μg/mL) it was −1.3%; in data set [4] (Table 1-2, sample 100 μg/mL) it was “+0.5%”. In data set [1], the half-life is 48 min.
For the substance “BMJB012: PEG modification of Tα1, listed after BMJBT001 in Tables 1-2 and 2-2 (SDAAVDTSSEITTKDLKEKKEVVEEAEN; not fully specified; ends and bridges not checked; also: PEG conjugate, site not given here; UniProt P06454 2-29, looked up)”, the “3H-TdR incorporation (cpm, x ± SD)” value in data set [2] (Table 2-2, sample 10 μg/mL) is 22772 ± 3222 cpm; in data set [2] (Table 2-2, sample 50 μg/mL), 24066 ± 4004 cpm; in data set [2] (Table 2-2, sample 100 μg/mL), 25176 ± 3656 cpm. Besides, the Enhancement percentage result is “+95.6%” in data set [2] (Table 2-2, sample 10 μg/mL); “+106.7%” in data set [2] (Table 2-2, sample 50 μg/mL); “+116.3%” in data set [2] (Table 2-2, sample 100 μg/mL); “+29.7%” in data set [4] (Table 1-2, sample 1 μg/mL); −4.4% in data set [4] (Table 1-2, sample 10 μg/mL); “+0.6%” in data set [4] (Table 1-2, sample 100 μg/mL). Also, the AUC in data set [3] (n = 3) came to 8150 ng·h/mL. Besides, in data set [3] (n = 3), the Cmax turned out to be 348 ng/mL. Besides, the time of peak concentration (Tmax) in data set [3] (n = 3) came to 720 min. In addition, the “Concentration of IFN-γ” value in data set [4] (Table 1-2, sample 1 μg/mL) turned out to be 4224.7 ± 183.1 pg/mL; in data set [4] (Table 1-2, sample 10 μg/mL), 3115.3 ± 377.1 pg/mL; in data set [4] (Table 1-2, sample 100 μg/mL), 3277.7 ± 181.0 pg/mL.
Regarding “Ac-CSDAAVDTSSEITTKDLKEKKEVVEEAEN-OH [BMJBT008]”, in data set [3] (n = 3), the AUC was found to be 1210 ng·h/mL. Besides, in data set [3] (setting [5]), the Cmax was found to be 430 ng/mL. Also, the Tmax in data set [3] (setting [6]) amounted to 20 min. In addition, the “Concentration of IFN-γ” value in data set [4] (Table 1-3, sample 1 μg/mL) was 4323.8 ± 187.0 pg/mL; in data set [4] (Table 1-3, sample 10 μg/mL), 3115.0 ± 195.8 pg/mL; in data set [4] (Table 1-3, sample 100 μg/mL), 2975.5 ± 182.6 pg/mL. The Enhancement percentage result in data set [4] (Table 1-3, sample 1 μg/mL) is “+41.6%”; in data set [4] (Table 1-3, sample 10 μg/mL), “+2.0%”; in data set [4] (Table 1-3, sample 100 μg/mL) it was −2.6%. In data set [1], the half-life was < 60 min.
For the substance “Ac-SDAAVDTCSEITTKDLKEKKEVVEEAEN-OH [BMJBT002]”, the “3H-TdR incorporation (cpm, x ± SD)” value was determined as 23881 ± 2809 cpm in data set [2] (Table 2-2, sample 10 μg/mL); 19611 ± 2612 cpm in data set [2] (Table 2-2, sample 50 μg/mL); 11956 ± 1555 cpm in data set [2] (Table 2-2, sample 100 μg/mL). Also, the Enhancement percentage result in data set [2] (Table 2-2, sample 10 μg/mL) is “+105.1%”; in data set [2] (Table 2-2, sample 50 μg/mL), “+68.5%”; in data set [2] (Table 2-2, sample 100 μg/mL) it was “+2.6%”. This substance also came in with an AUC in data set [3] (n = 3) of 2440 ng·h/mL. The Cmax in data set [3] (setting [5]) was determined as 1860 ng/mL. Also, in data set [3] (setting [6]), the time of peak concentration (Tmax) amounted to 20 min. Also, the half-life in data set [1] was 126 min.
